Earlier results as cited in US12678435B2, “Prevention and/or treatment of contrast-induced acute kidney injury” (Saghmos Therapeutics Inc., priority 2016, dated 2026).

System: patients with high serum creatinine levels undergoing coronary angiography/angioplasty
Settings: four Phase 2 clinical trials; compared with isotonic saline; published in Onbasili 2007, Rahman 2012, Shehata 2014, Liu 2015

SMILES: COc1ccc(CN2CCNCC2)c(OC)c1OC [Trimetazidine]
- reducing the risk of contrast-induced nephropathy (CIN): more effective than isotonic saline in reducing the risk of contrast-induced nephropathy (CIN)
